Test results from patent US8853424B2 (Japan Science and Technology Agency, priority 2008, dated 2014).
Where two headings read alike, the source gives them in different places.

Key:
[1] = test system: transglutaminase (TGase); experiment: Measurement of TG (TGase inhibitory activity, monodansyl cadaverine / N,N-dimethylcasein fluorescence, FDSS 3000); type: biochemical
How it was run: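 Compound (1 μL of 10 mM stock) added to 0.1 mL reaction: 100 mM HEPES-NaOH pH 7.5, 1 mM CaCl2, 20 μM monodansyl cadaverine, 0.05 mg/mL N,N-dimethylcasein, 5 μg/mL TGase. Rate of fluorescence change at 340 nm measured; DMSO control set to 100; TG50 is the concentration halving activity.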

[2] = test system: SOC (store operated calcium channel); experiment: Measurement of SOC IC50 (thapsigargin store depletion, calcium re-addition, CHO cells); type: cell-based; settings: read-out: SOC IC50
Protocol: The SOC (store operated calcium channel)-suppressive action can be measured by the method described in the Example and using, for example, FDSS 3000.
CHO cell culture medium was replaced with a BSS solution which is an extracellular fluidfree of calcium, the compound of the present invention was added 1 min later, and 1 μM thapsigargin was allowed to act thereon 2 min later to deplete intracellular calcium store. […]

[3] = test system: Truncated N-terminal huntington 150 Q-EGFP-Neuron 2a cells; experiment: Measurement of x-Fold (polyglutamine aggregation inhibitory activity); type: cell-based
Protocol: In the present invention, the polyglutamine aggregation inhibitory activity (x-Fold) can be measured, for example, by the method described in the Example.
The number of the aggregated cells, and the total number of cells were counted by Array Scan V T1 (manufactured by Cellomics, Pittuburg, USA), and the ratio of the aggregated cells to the total number of cells was determined (x-Fold). […]

[4] = TGase activity with compound (10 mM, 1 μL in 0.1 ml enzyme reaction solution), DMSO control taken as 100
[5] = TGase inhibitory activity measurement, unit not given
[6] = CHO cells, 1 μM thapsigargin, 2 mM calcium chloride
[7] = polyglutamine aggregation, Truncated N-terminal huntington 150 Q-EGFP-Neuron 2a cells
[8] = ratio of aggregated cells to total number of cells, compound 20 μM, 20 hr, almost 1 without compound, smaller = stronger inhibition

Structure (SMILES) | TGase activity remaining (% of DMSO control = 100) [1, 4] | TGase activity remaining (% of DMSO control = 100) [1, 5] | IC50 [2, 6] [nM] | IC50 ([2]; Table 1) [nM] | TGase activity remaining (% of DMSO control = 100) ([1]; TGase inhibitory activity measurement, unit not given, listed as 3021) | IC50 ([2]; CHO cells, 1 μM thapsigargin, 2 mM calcium chloride, no unit printed) [nM] | x-Fold [3, 7] | x-Fold [3, 8] | x-Fold ([3]; polyglutamine aggregation inhibitory activity, Table 1) | x-Fold ([3]; polyglutamine aggregation, Truncated N-terminal huntington 150 Q-EGFP-Neuron 2a cells, listed as 3021)
NCCCC(N)C(=O)OB(c1ccccc1)c1ccc(Oc2ccc(B(OC(=O)C(N)CCCN)c3ccccc3)cc2)cc1 (stereo not shown) [Example 435, bis(4,4′-(phenyl-ornithineboryl)phenyl)ether] | 26 | 26 | 2000 |  |  |  | 0.84 | 0.84 |  | 
c1ccc(B(OCC2CCCN2)c2ccc(Oc3ccc(B(OCC4CCCN4)c4ccccc4)cc3)cc2)cc1 (stereo not shown) [Example 438, bis(4,4′-(phenyl-2-pyrrolidinemethoxyboryl)phenyl)ether] | 29 | 29 | 2000 |  |  |  | 0.67 | 0.67 |  | 
c1ccc(COB(c2ccc(Oc3ccc(B(OCc4ccccn4)c4cccc5ccccc45)cc3)cc2)c2cccc3ccccc23)nc1 [Example 443, bis(4,4′-(naphthyl-2-pyridylmethoxyboryl)phenyl)ether] | 84 | 84 | 3000 |  |  |  | 0.63 | 0.63 |  | 
NC(=O)CCC(N)C(=O)OB(c1ccc(Oc2ccc(B(OC(=O)C(N)CCC(N)=O)c3cccc4ccccc34)cc2)cc1)c1cccc2ccccc12 (stereo not shown) [Example 444, bis(4,4′-(naphthylglutamineboryl)phenyl)ether] | 20 | 20 | 1400 |  |  |  | 0.65 | 0.65 |  | 
NCCSB(c1ccccc1)c1ccc(COCc2ccc(B(SCCN)c3ccccc3)cc2)cc1 [Example 451, bis(4,4′-(phenyl-aminoethylthioboryl)benzyl)ether] | 6 | 6 | 1400 |  |  |  | 0.91 | 0.91 |  | 
CN1CCCCC1COB(c1ccccc1)c1ccc(COCc2ccc(B(OCC3CCCCN3C)c3ccccc3)cc2)cc1 (stereo not shown) [Example 457, bis(4,4′-(phenyl-N-methylpiperidine-methoxyboryl)benzyl)ether] | 30 | 30 | 600 |  |  |  | 1.10 | 1.10 |  | 
CC(CN)OB(c1ccccc1)c1ccc(COCc2ccc(B(OC(C)CN)c3ccccc3)cc2)cc1 (stereo not shown) [Example 458, bis(4,4′-(phenyl-1-methyl-2-aminoethoxyboryl)benzyl)ether] | 31 | 31 | 500 |  |  |  | 1.10 | 1.10 |  | 
CN(C)CCOB(c1ccccc1)c1cccc(COCc2cccc(B(OCCN(C)C)c3ccccc3)c2)c1 [Example 464, bis(3,3′-(phenyl-dimethylaminoethoxyboryl)benzyl)ether] | 41 |  |  |  | 41 | 800 |  | 0.76 |  | 0.76

Second part, led by results:

TGase activity remaining (% of DMSO control = 100) [1, 4] | TGase activity remaining (% of DMSO control = 100) [1, 5] | IC50 [2, 6] [nM] | IC50 ([2]; Table 1) [nM] | TGase activity remaining (% of DMSO control = 100) ([1]; TGase inhibitory activity measurement, unit not given, listed as 3021) | IC50 ([2]; CHO cells, 1 μM thapsigargin, 2 mM calcium chloride, no unit printed) [nM] | Structure (SMILES) | x-Fold [3, 7] | x-Fold [3, 8] | x-Fold ([3]; polyglutamine aggregation inhibitory activity, Table 1) | x-Fold ([3]; polyglutamine aggregation, Truncated N-terminal huntington 150 Q-EGFP-Neuron 2a cells, listed as 3021)
60 | 60 | 300 |  |  |  | c1ccc(B(OCc2ccccn2)c2ccc(Oc3ccc(B(OCc4ccccn4)c4ccccc4)cc3)cc2)cc1 [Example 432, bis(4,4′-(phenyl-2-pyridylmethoxyboryl)phenyl)ether] | 0.71 | 0.71 |  | 
−5 | −5 | 500 |  |  |  | NCCSB(c1ccccc1)c1ccc(Oc2ccc(B(SCCN)c3ccccc3)cc2)cc1 [Example 433, bis(4,4′-(phenyl-aminoethylthioboryl)phenyl)ether] | 0.71 | 0.71 |  | 
43 | 43 | 400 | 1500 |  |  | NCC(OB(c1ccccc1)c1ccc(Oc2ccc(B(OC(CN)c3ccccc3)c3ccccc3)cc2)cc1)c1ccccc1 (stereo not shown) [Example 434, bis(4,4′-(phenyl-2-amino-1-phenylethoxyboryl)phenyl)ether] | 0.60 | 0.60 | 0.06 | 
29 | 29 | 500 |  |  |  | c1ccc(B(OCC2CCCN2)c2ccc(COCc3ccc(B(OCC4CCCN4)c4ccccc4)cc3)cc2)cc1 (stereo not shown) [Example 452, bis(4,4′-(phenyl-2-pyrrolidinemethoxyboryl)benzyl)ether] | 0.96 | 0.96 |  | 
15 | 15 | 500 |  |  |  | CCCCNCCOB(c1ccccc1)c1ccc(COCc2ccc(B(OCCNCCCC)c3ccccc3)cc2)cc1 [Example 454, bis(4,4′-(phenyl-butylaminoethoxyboryl)benzyl)ether] | 0.97 | 0.97 |  | 
23 | 23 | 500 |  |  |  | c1ccc(NCCOB(c2ccccc2)c2ccc(COCc3ccc(B(OCCNc4ccccc4)c4ccccc4)cc3)cc2)cc1 [Example 455, bis(4,4′-(phenyl-phenylaminoethoxyboryl)benzyl)ether] | 1.04 | 1.04 |  | 
29 | 29 | 500 |  |  |  | c1ccc(CNCCOB(c2ccccc2)c2ccc(COCc3ccc(B(OCCNCc4ccccc4)c4ccccc4)cc3)cc2)cc1 [Example 456, bis(4,4′-(phenyl-benzylaminoethoxyboryl)benzyl)ether] | 0.87 | 0.87 |  | 
26 | 26 | 400 |  |  |  | c1ccc(B(OCC2CCCN2)c2cccc(COCc3cccc(B(OCC4CCCN4)c4ccccc4)c3)c2)cc1 (stereo not shown) [Example 460, bis(3,3′-(phenyl-2-pyrrolidinomethoxyboryl)benzyl)ether] | 0.95 | 0.95 |  | 
31 | 31 | 300 |  |  |  | NC(COB(c1ccccc1)c1cccc(COCc2cccc(B(OCC(N)c3ccccc3)c3ccccc3)c2)c1)c1ccccc1 (stereo not shown) [Example 462, bis(3,3′-(phenyl-2-phenyl-2-aminoethoxyboryl)benzyl)ether] | 0.92 | 0.92 |  | 
24 | 24 | 300 |  |  |  | c1ccc(B(OCC2CCCCN2)c2cccc(COCc3cccc(B(OCC4CCCCN4)c4ccccc4)c3)c2)cc1 (stereo not shown) [Example 463, bis(3,3′-(phenyl-2-piperidylmethoxyboryl)benzyl)ether] | 0.92 | 0.92 |  | 
18 | 18 | 200 |  |  |  | CC(CN)OB(c1ccccc1)c1cccc(COCc2cccc(B(OC(C)CN)c3ccccc3)c2)c1 (stereo not shown) [Example 465, bis(3,3′-(phenyl-1-methyl-2-aminoethoxyboryl)benzyl)ether] | 1.06 | 1.06 |  | 
